In paper PMC6366430 (Journal of Enzyme Inhibition and Medicinal Chemistry, 2019):
Several values for one entry are separate records, joined by “and”; a condition that tells them apart may be missing. Equal entries are not always repeated. Where two headings read alike, the source gives them in different places.

Key:
[1] = system: N2a cells (neuroblastoma); assay: N2a neuroblastoma cell viability, MTT assay; type: cell-based, murine; details: for Neuroblastoma cell viability, MTT reduction relative to control cells, Mean ± SD: 48 h; for cytotoxicity against N2a cells (in words): 48 h incubation, maximum tested concentration 50 µM
Description: N2a cells were cultured in Dulbecco’s modified Eagle’s medium supplemented with 10% fetal bovine serum and 0.1% gentamicin in a 5% CO2 atmosphere. N2a cells were transferred to a 96-well plate (∼10,000 cells/cm^2) and incubated for 24 h, before treatment with the compounds at 10 or 50 µM. Cell viability was evaluated by MTT (3-[4,5-dimethylthiazol-2-yl]-2,5-diphenyl tetrazolium bromide) assay.
Murine neuroblastoma cell (N2a) culture and cell viability assay.
N2a cells were cultured in Dulbecco’s modified Eagle’s medium supplemented with 10% fetal bovine serum and 0.1% gentamicin in a 5% CO2 atmosphere. N2a cells were transferred to a 96-well plate (~10,000 cells/cm2) and incubated for 24 h, before treatment with the compounds at 10 or 50 µM. After being treated, cells were grown for 48 hours. Cell viability was evaluated by MTT (3-[4,5-dimethylthiazol-2-yl]-2,5-diphenyl tetrazolium bromide) assay. MTT was added to a final concentration of 0.5 mg/mL into the wells (samples and controls), and the plates were incubated for 4 h at 37 °C. After, all the media was removed and produced formazan crystals were solubilized with DMSO and quantified by reading the OD at 570 nm in a 96-well plate reader (SpectraMax® Paradigm®, Molecular Devices). Means and standard deviations were calculated from triplicates.

BuChE from horse serum = target: T1, BuChE from horse serum (Equus caballus, UniProt P81908); assay: biochemical; details: mean ± SD of triplicate independent experiments
T1 construct: equine serum butyrylcholinesterase (EqBuChE); from tissue; host or cells: equine (horse) serum
T1 sequence (P81908 whole entry): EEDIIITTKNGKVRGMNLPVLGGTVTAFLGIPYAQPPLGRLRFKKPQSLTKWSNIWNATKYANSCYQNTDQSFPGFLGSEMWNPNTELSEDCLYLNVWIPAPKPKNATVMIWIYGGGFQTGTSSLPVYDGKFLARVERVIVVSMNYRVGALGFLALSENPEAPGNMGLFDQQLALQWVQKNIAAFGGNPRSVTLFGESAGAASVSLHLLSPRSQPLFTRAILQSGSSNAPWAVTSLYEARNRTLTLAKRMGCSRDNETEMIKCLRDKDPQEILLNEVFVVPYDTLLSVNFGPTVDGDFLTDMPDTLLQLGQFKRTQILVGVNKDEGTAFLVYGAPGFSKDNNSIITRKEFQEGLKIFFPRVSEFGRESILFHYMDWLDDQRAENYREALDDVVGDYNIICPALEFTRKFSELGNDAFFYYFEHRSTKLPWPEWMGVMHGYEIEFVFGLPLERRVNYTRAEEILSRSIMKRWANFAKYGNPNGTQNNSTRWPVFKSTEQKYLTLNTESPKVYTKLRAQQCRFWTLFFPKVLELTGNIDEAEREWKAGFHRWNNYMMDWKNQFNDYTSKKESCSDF
Description: (§1) Activity of enzymes and inhibition kinetics were determined using a Bio-Rad iMark microplate reader based on a modification of the Ellman method.[14] ^, [15] Compounds were dissolved in DMSO. The assay solution which contained 60 µL 5,5′-Dithiobis(2-nitrobenzoic acid) (DTNB) at 1.1 mM, 30 µL AChE/BuChE at 0.20 U/mL (initial concentration) and 150 µL tested compound solution with different concentrations. Absorbance was then recorded at λ = 415 nm. […]
(§2) serially diluted. Negative (without treatment) and vehicle (DMSO, final concentration 0.2% v/v for AChE and 0.8% v/v for BuChE) controls were kept for reference.
(§3) Following, there were added 60 μL of 5,5′-Dithiobis(2-nitrobenzoic acid) (DTNB, Ellman's reagent) at 1.1 mM and 30 μL of electric eel acetylcholinesterase (EeAChE) or equine serum butyrylcholinesterase (EqBuChE) at 0.20 U/mL in the presence of 1 mg/mL bovine serum albumin (BSA). Absorbance was then recorded using an iMark plate reader (Bio-Rad) equipped with a λ = 415 nm light filter and this measure used as […]
(§4) acetylthiocholine iodide (ACTI) or S-butyrylthiocholine iodide (BCTI) were added and the absorbance recorded after a 10-minute incubation at 30 °C at λ = 415 nm for 3 times within 30 seconds. Enzyme activity was calculated as percentage of untreated control discounting the blank reference. The final inhibitor concentration ranged from 100 – 0.00001 μM for AChE (dillution factor = 10) and from 400 – 0.1 μM for BuChE (dillution factor = 4). IC50 values were calculated on Graphpad Prism 7.0 using the non-linear regression model for dose-response inhibition. […]

AChE from electric eel = target: T2, AChE from electric eel (Electrophorus electricus, UniProt O42275); assay: biochemical; details: for IC50: AChE from electric eel, mean ± SD of triplicate independent experiments
T2 construct: purchased Sigma-Aldrich
T2 sequence (O42275 24-633): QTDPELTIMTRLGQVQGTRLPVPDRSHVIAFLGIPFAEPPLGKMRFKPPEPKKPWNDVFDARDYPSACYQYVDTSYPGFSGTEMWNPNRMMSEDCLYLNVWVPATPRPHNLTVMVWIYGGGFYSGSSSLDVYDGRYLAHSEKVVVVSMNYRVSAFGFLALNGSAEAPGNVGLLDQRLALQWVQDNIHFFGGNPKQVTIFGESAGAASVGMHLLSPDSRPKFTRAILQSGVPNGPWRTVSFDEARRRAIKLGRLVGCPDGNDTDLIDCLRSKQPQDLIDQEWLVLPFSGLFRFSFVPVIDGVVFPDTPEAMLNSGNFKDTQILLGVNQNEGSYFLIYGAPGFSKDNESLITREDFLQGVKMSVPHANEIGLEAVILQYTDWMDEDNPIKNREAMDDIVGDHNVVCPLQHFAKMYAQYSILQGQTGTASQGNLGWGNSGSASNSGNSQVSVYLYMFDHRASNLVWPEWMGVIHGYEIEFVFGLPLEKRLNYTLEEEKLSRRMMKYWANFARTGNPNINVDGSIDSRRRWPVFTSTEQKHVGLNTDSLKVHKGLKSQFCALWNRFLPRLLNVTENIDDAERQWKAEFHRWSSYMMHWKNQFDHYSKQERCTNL
Description: as §1, §2, §3, §4

[2] = target: T3, equine serum butyrylcholinesterase (EqBuChE) (Equus caballus, UniProt P81908); assay: biochemical; type: biochemical; details: for inhibition type in BuChE: Lineweaver–Burk; for Ki’ (non-competitive inhibition constant) on BuChE / Ki: ± SD of triplicate; for Ki: read-out: Ki (competitive inhibition constant) on BuChE
T3 construct: equine serum butyrylcholinesterase (EqBuChE); from tissue; host or cells: equine (horse) serum
T3 sequence (P81908 whole entry): as the sequence (P81908 whole entry) above
Description: as §1
(§5) The enzymatic kinetic of cholinesterase inhibition was determined according to adapted Ellman's method1. All of the solution were prepared in 0.02 M tris-HCl buffer (pH = 7.5), stock solutions of test compounds prepared in DMSO (50 mM), and the experiment conducted in triplicate. To a flat-bottom 96-well transparent plate were added 150μL of treatment solutions with inhibitors 4d and 6a at two different concentrations (Table 2) distributed in eight sets of triplicates each. Eight sets of untreated triplicates were used as negative control. Following, there were added 60 μL of 5,5′-Dithiobis(2-nitrobenzoic acid) (DTNB, Ellman's reagent) at 1.1 mM and 30 μL of electric eel acetylcholinesterase (EeAChE) or equine serum butyrylcholinesterase (EqBuChE) at 0.20 U/mL in presence of 1 mg/mL bovine serum albumin (BSA).
(§6) Absorbance was then recorded using an iMark plate reader (Bio-Rad) equipped with a λ = 415 nm light filter and this measure used as a blank reference. After 10-minute incubation at room temperature, 24 μL of acetylthiocholine iodide (ACTI) or S- […]
(§7) the absorbance recorded after incubation for 0, 5, 10, 15 and 20 minutes at room temperature at λ = 415 nm. The Lineweaver–Burk reciprocal plots were obtained by […]
(§8) plotting a 1/velocity versus 1/[substrate] graph for two different inhibitor concentrations […]
(§9) behavior, in ways the region to where the curves converge determine the type of inhibition observed. Ki, Ki' (competitive and noncompetitive inhibition constants respectively), Km (Michaelis-Menten constant) and Vmax values were calculated with Graphpad Prism 7.0 using the non-linear regression models for enzyme kinetics - inhibiton and enzyme kinects - substrate vs. velocity.

[3] = target: T4, electric eel acetylcholinesterase (EeAChE) (Electrophorus electricus, UniProt O42275); assay: biochemical; type: biochemical; details: for inhibition type in AChE: Lineweaver–Burk; for Ki’ (non-competitive inhibition constant) on AChE / Ki: ± SD of triplicate; for Ki: read-out: Ki (competitive inhibition constant) on AChE
T4 construct: purchased Sigma-Aldrich
T4 sequence (O42275 24-633): as the sequence (O42275 24-633) above
Description: as §1, §5, §6, §7, §8, §9

[4] = Ferric reducing ability of plasma (FRAP) antioxidant assay; details: 50 µM final concentration, 10 min at 37 °C
Description: A 0.5 ml solution of coumarin compounds in methanol (50 µM final concentration) was mixed with 4.5 ml of the FRAP reagent. After 10 min of incubation at 37 °C, absorbance at 593 nm was measured using methanol as blank.[20] ^, [21] The calibration curve was prepared with quercetin and the results expressed as: antioxidant index based on quercetine (Q) (mmol Q/mol). The analyses were performed in triplicate.
FRAP solution was freshly prepared by mixing 25 mL acetate buffer (0.30 M) at pH
3.6, 2.5 mL ferric chloride (20 mM) and 2.5 mL 2,4,6-tris(2-pyridyl)-s-triazine (10
mM). In a test tube containing 4.5 mL of FRAP reagent were added 0.5 mL of 500 µM
solutions of 4a-d, 5a-c and 6a-c (in methanol). After a 10-minute incubation at 37°C the
absorbance was recorded in a spectrophotometer at λ = 593 nm using methanol as blank
reference11. A standard curve was obtained by plotting the absorbance read after
of quercetin (Q) equivalent to mol of inhibitor (mmol Q/mol), obtained in triplicates.

Row | Structure (SMILES) | Neuroblastoma cell viability, MTT reduction relative to control cells, Mean ± SD ([1]; 10 µM) | Neuroblastoma cell viability, MTT reduction relative to control cells, Mean ± SD ([1]; 50 µM) | cytotoxicity against N2a cells (in words) [1] | IC50 (BuChE from horse serum) | IC50 (AChE from electric eel; read-out: IC50(μM)±SD AChE) | SI (selectivity index, BuChE IC50/AChE IC50) (AChE from electric eel) | FRAP value, antioxidant index based on quercetine (Q) [4] | other results
1 | O=c1oc2cc(OCCN3CCCCC3)ccc2cc1Br [Compound 4a] | 89.16 ± 11.28% | 103.2 ± 13.68% | not cytotoxic | 8.37 ± 0.167 µM | 0.18 ± 0.009 µM | 47 | – | –
2 | O=c1oc2cc(OCCCN3CCCCC3)ccc2cc1Br [Compound 4b] | 93.34 ± 8.19% | 87.60 ± 4.39% | – | 15.87 ± 0.007 µM | 0.37 ± 0.008 µM | 42 | – | –
3 | O=c1oc2cc(OCCCCN3CCCCC3)ccc2cc1Br [Compound 4c] | 94.43 ± 4.28% | 88.88 ± 19.01% | – | 4.92 ± 0.095 µM | 0.55 ± 0.01 µM | 9 | – | –
4 | O=c1oc2cc(OCCCCCN3CCCCC3)ccc2cc1Br [Compound 4d] | 80.10 ± 7.27% | 62.11 ± 10.09% | – | 5.01 ± 0.253 µM | 0.14 µM and 0.15 µM | 33 | – | inhibition type in BuChE [2]: mixed-type inhibition; Vmax on BuChE ([2]; inhibitor 0.1 μM (so in the source)): 5.791 ± 0.185 µM/min; Vmax on BuChE ([2]; inhibitor 0.2 μM (so in the source)): 4.669 ± 0.229 µM/min; Ki’ (non-competitive inhibition constant) on BuChE [2]: 6621 ± 322 nM; Ki [2]: 2130 ± 148 nM; inhibition type in AChE [3]: mixed-type inhibition; Vmax on AChE ([3]; inhibitor 0.1 μM): 2.209 ± 0.060 µM/min; Vmax on AChE ([3]; inhibitor 0.2 μM): 1.752 ± 0.198 µM/min; Ki’ (non-competitive inhibition constant) on AChE [3]: 157.350 ± 4.674 nM; Ki [3]: 21.3 ± 0.816 nM
5 | O=c1oc2cc(OCCN3CCCCC3)ccc2cc1-c1ccccc1 [Compound 5a] | 98.37 ± 8.92% | 105.5 ± 14.93% | not cytotoxic | 2.5 ± 0.177 µM | 0.14 ± 0.009 µM | 18 | – | –
6 | O=c1oc2cc(OCCCN3CCCCC3)ccc2cc1-c1ccccc1 [Compound 5b] | 83.55 ± 6.58% | 57.06 ± 8.72% | increase in toxicity | 1.86 ± 0.024 µM | 0.24 ± 0.014 µM | 8 | – | –
7 | O=c1oc2cc(OCCCCCN3CCCCC3)ccc2cc1-c1ccccc1 [Compound 5c] | 117.4 ± 4.86% | 13.47 ± 1.19% | increase in toxicity | 0.9 ± 0.001 µM | 0.45 ± 0.036 µM | 2 | – | –
8 | CN(C)c1ccc(-c2cc3ccc(OCCN4CCCCC4)cc3oc2=O)cc1 [Compound 6a] | 92.15 ± 43.03% | 115.9 ± 4.28% | not cytotoxic | 6.73 ± 0.04 µM | – | 354 | 7.49 ± 0.61 mmol Q/mol | IC50 (AChE from electric eel; IC50(μM)±SD AChE): 0.02 ± 0.001 µM; inhibition type in BuChE [2]: mixed-type inhibition; Vmax on BuChE ([2]; inhibitor 0.01 μM (so in the source)): 4.837 ± 0.399 µM/min; Vmax on BuChE ([2]; inhibitor 0.03 μM (so in the source)): 3.224 ± 0.284 µM/min; Ki’ (non-competitive inhibition constant) on BuChE [2]: 7376 ± 558 nM; Ki [2]: 2580 ± 236 nM; Ki’ (noncompetitive) against AChE [3]: 10 nM; inhibition type in AChE [3]: mixed-type inhibition; Vmax on AChE ([3]; inhibitor 0.01 μM): 1.762 ± 0.128 µM/min; Vmax on AChE ([3]; inhibitor 0.03 μM): 1.254 ± 0.043 µM/min; Ki’ (non-competitive inhibition constant) on AChE [3]: 10.499 ± 0.438 nM; Ki [3]: 1.61 ± 0.066 nM
9 | CN(C)c1ccc(-c2cc3ccc(OCCCN4CCCCC4)cc3oc2=O)cc1 [Compound 6b] | 84.11 ± 11.1% | 16.79 ± 8.41% | increase in toxicity | 7.27 ± 0.273 µM | 0.33 ± 0.011 µM | 22 | 2.42 ± 0.19 mmol Q/mol | –
10 | CN(C)c1ccc(-c2cc3ccc(OCCCCCN4CCCCC4)cc3oc2=O)cc1 [Compound 6c] | 59.04 ± 8.21% | 10.09 ± 3.09% | increase in toxicity | 3.85 ± 0.19 µM | 0.92 µM and 0.96 µM | 4 | 2.77 ± 0.00 mmol Q/mol | –
